Experiments:
Format in all cases: cell-based
[1] = tested on: Listeria monocytogenes ATCC 19115; experiment: Experiment 2: octanoate esterase substrates with different Indoxyl-based chromogenic markers; parameters: key to I (intensity of the color): —: the symbol “-” corresponds to the absence of color or intensity; 0 corresponds to no activity; 0.1 corresponds to a trace of color; 0.5 corresponds to very pale coloration; 1 corresponds to clear but low-intensity coloration; 1.5 corresponds to a degree of coloration intermediate between scores 1 and 2; 2 corresponds to clear coloration of moderate intensity; 2.5 corresponds to a degree of coloration intermediate between scores 2 and 3; 3 corresponds to intense coloration; 3.5 corresponds to a degree of coloration intermediate between scores 3 and 4; 4 corresponds to very intense coloration; conditions: 37° C., substrate 250 mg/l
Protocol: (§1) In Table 1 above, as in the following Tables, C represents the color of the colonies after incubation, I represents the intensity of the color, and the symbol “-” corresponds to the absence of color or intensity; finally, IT defines the incubation time. It should be noted that the intensity of the color is scored on an arbitrary scale but one which is consistent for all the biological specimens and media tested. This scale is valid for this experiment as well as all those that follow. It can be defined in the following way: • 0 corresponds to no activity, • 0.1 corresponds to a trace of color, • 0.5 corresponds to very pale coloration, • 1 corresponds to clear but low-intensity coloration, • 1.5 corresponds to a degree of coloration intermediate between scores 1 and 2, • 2 corresponds to clear coloration of moderate intensity, • 2.5 corresponds to a degree of coloration intermediate between scores 2 and 3, • 3 corresponds to intense coloration, • 3.5 corresponds to a degree of coloration intermediate between scores 3 and 4, • 4 corresponds to very intense coloration.
A stock solution of each substrate at a concentration of 40 g/l was made up in a mixture of 40% Dimethylsulfoxide and 60% Tween 20. An appropriate volume was added to four Columbia-type media while cooling to give a final substrate concentration of 250 mg/l. These dishes were divided into three areas and then each area was inoculated with a suspension (density=0.5 McFarland) of microorganisms taken from either the Applicant's own collection or the ATCC. The dishes were incubated for 48 hours at 37° C. The colonies which grew were examined by eye after 24 and 48 hours of incubation. Both the color and the intensity of the color of the colonies were recorded.

[2] = tested on: Listeria monocytogenes ATCC 19115; experiment: Experiment 3: detecting an esterase activity in liquid medium (API-type strips); parameters: key: —: the symbol “-” corresponds to the absence of color or intensity; 0 corresponds to no activity; 0.1 corresponds to a trace of color; 0.5 corresponds to very pale coloration; 1 corresponds to clear but low-intensity coloration; 1.5 corresponds to a degree of coloration intermediate between scores 1 and 2; 2 corresponds to clear coloration of moderate intensity; 2.5 corresponds to a degree of coloration intermediate between scores 2 and 3; 3 corresponds to intense coloration; 3.5 corresponds to a degree of coloration intermediate between scores 3 and 4; 4 corresponds to very intense coloration; conditions: 37° C.
Protocol: as §1
(§2) These substrates were lyophilized in the wells of API-type strips (Registered Trademark). Before use, the substrates contained in the wells were resuspended in an agar-free Columbia-type inoculation medium. These wells were then inoculated with a suspension (density=2 McFarland) of microorganisms taken from either the Applicant's own collection or the ATCC. The strips were incubated for 8 hours at 37° C. The colonies which grew were examined by eye after 4, 6 and 8 hours of incubation.
(§3) The intensity of the color of the colonies was recorded.

Listeria welshimeri 023 = experiment: as above; parameters: key: —: the symbol “-” corresponds to the absence of color or intensity; 0 corresponds to no activity; 0.1 corresponds to a trace of color; 0.5 corresponds to very pale coloration; 1 corresponds to clear but low-intensity coloration; 1.5 corresponds to a degree of coloration intermediate between scores 1 and 2; 2 corresponds to clear coloration of moderate intensity; 2.5 corresponds to a degree of coloration intermediate between scores 2 and 3; 3 corresponds to intense coloration; 3.5 corresponds to a degree of coloration intermediate between scores 3 and 4; 4 corresponds to very intense coloration; conditions: 37° C.
Protocol: as §1, §2, §3

Listeria innocua 171 = experiment: as above; parameters: key: —: the symbol “-” corresponds to the absence of color or intensity; 0 corresponds to no activity; 0.1 corresponds to a trace of color; 0.5 corresponds to very pale coloration; 1 corresponds to clear but low-intensity coloration; 1.5 corresponds to a degree of coloration intermediate between scores 1 and 2; 2 corresponds to clear coloration of moderate intensity; 2.5 corresponds to a degree of coloration intermediate between scores 2 and 3; 3 corresponds to intense coloration; 3.5 corresponds to a degree of coloration intermediate between scores 3 and 4; 4 corresponds to very intense coloration; conditions: 37° C.
Protocol: as §1, §2, §3

[3] = tested on: Listeria grayi ATCC 19120; experiment: as above; parameters: key: —: the symbol “-” corresponds to the absence of color or intensity; 0 corresponds to no activity; 0.1 corresponds to a trace of color; 0.5 corresponds to very pale coloration; 1 corresponds to clear but low-intensity coloration; 1.5 corresponds to a degree of coloration intermediate between scores 1 and 2; 2 corresponds to clear coloration of moderate intensity; 2.5 corresponds to a degree of coloration intermediate between scores 2 and 3; 3 corresponds to intense coloration; 3.5 corresponds to a degree of coloration intermediate between scores 3 and 4; 4 corresponds to very intense coloration; conditions: 37° C.
Protocol: as §1, §2, §3

[4] = tested on: Listeria monocytogenes 092; experiment: as above; parameters: key: —: the symbol “-” corresponds to the absence of color or intensity; 0 corresponds to no activity; 0.1 corresponds to a trace of color; 0.5 corresponds to very pale coloration; 1 corresponds to clear but low-intensity coloration; 1.5 corresponds to a degree of coloration intermediate between scores 1 and 2; 2 corresponds to clear coloration of moderate intensity; 2.5 corresponds to a degree of coloration intermediate between scores 2 and 3; 3 corresponds to intense coloration; 3.5 corresponds to a degree of coloration intermediate between scores 3 and 4; 4 corresponds to very intense coloration; conditions: 37° C.
Protocol: as §1, §2, §3

Row | SMILES | C (color of the colonies) ([1]; IT 24 h) | I (intensity of the color) ([1]; IT 24 h) | C (color of the colonies) ([1]; IT 48 h) | I (intensity of the color) ([1]; IT 48 h) | I (intensity of the color) ([2]; IT 4 h) | I (intensity of the color) ([2]; IT 6 h) | I (intensity of the color) ([2]; IT 8 h) | I (intensity of the color) (Listeria welshimeri 023; IT 4 h) | I (intensity of the color) (Listeria welshimeri 023; IT 6 h) | I (intensity of the color) (Listeria welshimeri 023; IT 8 h) | I (intensity of the color) (Listeria innocua 171; IT 4 h) | I (intensity of the color) (Listeria innocua 171; IT 6 h) | I (intensity of the color) (Listeria innocua 171; IT 8 h) | I (intensity of the color) ([3]; IT 4 h) | I (intensity of the color) ([3]; IT 6 h) | I (intensity of the color) ([3]; IT 8 h) | I (intensity of the color) ([4]; IT 4 h) | I (intensity of the color) ([4]; IT 6 h) | I (intensity of the color) ([4]; IT 8 h)
1 | CCCCCCCC(=O)Oc1c[nH]c2ccc(Br)cc12 [Blue-C8, 5-Bromo-3-indolyl octanoate] | gray | 1 | gray | 2 |  |  |  |  |  |  |  |  |  |  |  |  |  |  | 
2 | CCCCCCCC(=O)Oc1c[nH]c2cc(Cl)c(Br)cc12 [Magenta-C8, 5-Bromo-6-chloro-3-indolyl octanoate] | purple | 2 | purple | 3 | — | — | 0.5 | — | — | — | — | — | — | — | — | — | — | — | 0.5
3 | CCCCCCCC(=O)Oc1c[nH]c2cc(Cl)ccc12 [Pink-C8, 6-Chloro-3-indolyl octanoate] | pink | 0.5 | pink | 1 | — | — | — | — | — | — | — | — | — | — | — | — | — | — | —
4 | CCCCCCCC(=O)Oc1c[nH]c2ccc(Br)c(Cl)c12 [X-C8, 5-Bromo-4-chloro-3-indolyl octanoate] | turquoise | 2.5 | turquoise | 3 | — | 1 | 1.5 | — | — | — | — | — | — | — | — | — | — | 1 | 1.5

Reference: patent US7407775B2, “Method for identifying Listeria monocytogenes and culture medium” (Biomerieux S.A., priority 2000, dated 2008)
